Experimental data published in publication PMC12481569, “Novltex: A New Class of Antibiotics with Potent Activity against Multidrug-Resistant Bacterial Pathogens–Design, Synthesis, and Biological Evaluation” (Journal of Medicinal Chemistry, 2025).
In brackets after ≈: the same amount, converted by molar mass. Read-outs that look alike come from different tables or passages of the source. Positions of bridges follow the written chain, without caps; N, C: chain ends. Non-standard residues stand in square brackets, D forms with d. Residues, ends and D or L forms follow the SMILES beside them. d(aIle) = CC[C@H](C)[C@@H](N)C(=O)O

Legend:
Assay in all cases: microbe, parasite or virus in culture
MRSA ATCC 33591 = assay type: cell-based, Staphylococcus aureus; conditions: for MIC against MRSA ATCC 33591: 24 h, two independent duplicates
Method: (§1) MICs were performed as previously reported 4. For MIC testing all peptides were dissolved in DMSO.
Bacterial cultures were grown overnight on Mueller-Hinton Agar (MHA) plates and adjusted to a final inoculum of 10^5 – 10^6 CFU/mL. 100 µl of ino culum in Meuller -Hinton broth (MHB) was mixed with equal volume of peptides (dissolved in MHB) at 2x their concentration in a 96 well plate . For daptomycin MIC determination, the same protocol was followed with the addition of 50 mg/L calcium chloride to the medium. MIC values were determined in the media contain ing polysorbate 80 (0.002%, v/v) to prevent non -specific adsorption of the peptides to plastic surfaces. The final peptides concentrations ranged from 0.0625 – 32 µg/mL. The 96 well plates were then incubated at 37 °C for 24 h. All the experiments were performed in two independent duplicates and the MIC was determined as the lowest concentration in which no visible growth was observed. […]

[1] = system: Multidrug-Resistant (MDR) E. faecium; conditions: Enterococcus faecium
Method: (§2) We further evaluated analogue 12 against multidrug-resistant (MDR) strains of S. aureus (acquired from the NARSA collection) and MDR E. faecium (acquired from International Health Management Associates, IHMA, Europe Sarl), comparing its activity to various classes of clinically used antibiotics (Table ).
as §1
(§3) Bacterial cultures were grown overnight on Mueller-Hinton Agar (MHA) plates and adjusted to a final inoculum of 10^5 – 10^6 CFU/mL. 100 µl of ino culum in Meuller -Hinton broth (MHB) was mixed with equal volume of peptides (dissolved in MHB) at 2x their concentration in a 96 well plate . For daptomycin MIC determination, the same protocol was followed with the addition of 50 mg/L calcium chloride to the medium. MIC values were determined in the media contain ing polysorbate 80 (0.002%, v/v) to prevent non -specific adsorption of the peptides to plastic surfaces. The final peptides concentrations ranged from 0.0625 – 32 µg/mL. The 96 well plates were then incubated at 37 °C for 24 h. All the experiments were performed in two independent duplicates and the MIC was determined as the lowest concentration in which no visible growth was observed.
(§4) Antibiotics MIC break points ( µg/mL)
(§5) Table. S4: Susceptibility cut-off values (MIC breakpoints) for various clinical antibiotics. […]

[2] = system: Multidrug-Resistant (MDR) S. aureus; conditions: for MIC: Staphylococcus aureus, 24 h
Method: as §2, §1, §3, §4, §5

[3] = broth dilution in MHB with 0.002% v/v polysorbate 80, inoculum 10^5-10^6 CFU/mL, 37 °C, no visible growth, Table 1
[4] = Table 2, MHB with 0.002% polysorbate 80, 37 °C

SMILES: CC(C)C[C@@H]1NC(=O)[C@@H](CC(C)C)NC(=O)[C@H](C)NC(=O)[C@H](NC(=O)[C@H](CO)NC(=O)[C@@H](CCCCN)NC(=O)[C@@H](CC(C)C)NC(=O)[C@@H](N)Cc2ccccc2)[C@H](C)OC1=O [analogue 2]
- MIC against MRSA ATCC 33591 (MRSA ATCC 33591; [3]): 32 µg/mL (≈ 36.6 µM)

SMILES: CC(=O)NC[C@H]1CN(c2ccc(N3CCOCC3)c(F)c2)C(=O)O1 [Linezolid]
- MIC ([1]; 24 h, read-out: MIC, Enterococcus faecium 1563254): 16 µg/mL (≈ 47.4 µM)
- MIC ([1]; 24 h, read-out: MIC, Enterococcus faecium 1581582): 1 µg/mL (≈ 2.96 µM)
- MIC ([1]; 24 h, read-out: MIC, Enterococcus faecium 1766686): 1 µg/mL (≈ 2.96 µM)
- MIC ([1]; read-out: MIC, two E. faecium clinical isolates that remained susceptible to linezolid): 1 µg/mL (≈ 2.96 µM)
- MIC ([2]; read-out: MIC, Staphylococcus aureus NR 45914): 2 µg/mL (≈ 5.93 µM)
- MIC ([2]; read-out: MIC, Staphylococcus aureus NR 45926): 32 µg/mL (≈ 94.9 µM)
- MIC ([2]; read-out: MIC, Staphylococcus aureus NR 45930): 4 µg/mL (≈ 11.9 µM)
- MIC ([2]; read-out: MIC, Staphylococcus aureus NR 46062): 16 µg/mL (≈ 47.4 µM)
- susceptibility/resistance of the S. aureus isolates based on the MIC breakpoints ([2]; four MDR S. aureus isolates): 3 out of 4 isolates showed resistance

SMILES: CC(C)C[C@@H]1NC(=O)[C@H](C)NC(=O)[C@H](NC(=O)[C@H](CO)NC(=O)[C@@H](CCCCN)NC(=O)[C@@H](CC(C)C)NC(=O)[C@@H](N)Cc2ccccc2)[C@H](C)OC(=O)[C@H](CC(C)C)NC1=O [analogue 4]
- MIC against MRSA ATCC 33591 (MRSA ATCC 33591; [3]): 2 to 4 µg/mL
- MIC against MRSA ATCC 33591 (MRSA ATCC 33591; broth dilution in MHB with 0.002% v/v polysorbate 80, inoculum 10^5-10^6 CFU/mL, 37 °C, no visible growth, Table 1, listed as Novltex analogue 4): 4 µg/mL (≈ 4.58 µM)

SMILES: CC[C@H](C)[C@@H]1NC(=O)[C@H](CC(C)C)NC(=O)[C@H](C)NC(=O)[C@H](NC(=O)[C@H](CO)NC(=O)[C@@H](CCCCN)NC(=O)[C@@H](CC(C)C)NC(=O)[C@@H](N)Cc2ccccc2)[C@H](C)OC1=O [analogue 10] (H-F[dL][dK]S[dT]ALI; ester 5-C)
- MIC against MRSA ATCC 33591 (MRSA ATCC 33591; [3]): 8 µg/mL (≈ 9.15 µM)

SMILES: CC(C)C[C@@H]1NC(=O)[C@H](C)NC(=O)[C@H](NC(=O)[C@@H](CO)NC(=O)[C@@H](CCCCN)NC(=O)[C@@H](CC(C)C)NC(=O)[C@H](N)Cc2ccccc2)[C@H](C)OC(=O)[C@H](CC(C)C)NC1=O [analogue 9]
- MIC against MRSA ATCC 33591 (MRSA ATCC 33591; [3]): 16 µg/mL (≈ 18.3 µM)

SMILES: CC(C)C[C@@H]1NC(=O)[C@H](C)NC(=O)[C@H](NC(=O)[C@H](CO)NC(=O)[C@@H](CCCCN)NC(=O)[C@@H](Cc2c[nH]c3ccccc23)NC(=O)[C@@H](N)Cc2ccccc2)[C@H](C)OC(=O)[C@H](CC(C)C)NC1=O [analogue 13, Leu2Trp–Novltex] (H-F[dW][dK]S[dT]ALL; ester 5-C)
- MIC against MRSA ATCC 33591 (MRSA ATCC 33591; [4]): > 32 µg/mL

SMILES: CC(C)C[C@@H]1NC(=O)[C@H](C)NC(=O)[C@H](NC(=O)[C@H](CO)NC(=O)[C@@H](CCCCN)NC(=O)[C@@H](Cc2ccccc2)NC(=O)[C@@H](N)Cc2ccccc2)[C@H](C)OC(=O)[C@H](CC(C)C)NC1=O [analogue 14, Leu2Phe–Novltex] (H-F[dF][dK]S[dT]ALL; ester 5-C)
- MIC against MRSA ATCC 33591 (MRSA ATCC 33591; [4]): 8 µg/mL (≈ 8.81 µM)

SMILES: CC(C)C[C@@H]1NC(=O)[C@H](C)NC(=O)[C@H](NC(=O)[C@H](CO)NC(=O)[C@@H](CCCCN)NC(=O)[C@@H](Cc2ccc(O)cc2)NC(=O)[C@@H](N)Cc2ccccc2)[C@H](C)OC(=O)[C@H](CC(C)C)NC1=O [analogue 15, Leu2Tyr–Novltex] (H-F[dY][dK]S[dT]ALL; ester 5-C)
- MIC against MRSA ATCC 33591 (MRSA ATCC 33591; [4]): >32 µg/mL

SMILES: CC[C@H](C)[C@@H](NC(=O)[C@@H](N)Cc1ccccc1)C(=O)N[C@H](CCCCN)C(=O)N[C@@H](CO)C(=O)N[C@H]1C(=O)N[C@@H](C)C(=O)N[C@@H](CC(C)C)C(=O)N[C@@H](CC(C)C)C(=O)O[C@H]1C [analogue 16, Leu2 D-allo-Ile–Novltex] (H-F[d(aIle)][dK]S[dT]ALL; ester 5-C)
- fold decrease in antibacterial activity (MIC) compared to analogue 12 (MRSA ATCC 33591; MRSA ATCC 33591): 64 fold
- MIC against MRSA ATCC 33591 (MRSA ATCC 33591; [4]): 16 µg/mL (≈ 18.3 µM)

SMILES: CC(C)C[C@@H]1NC(=O)[C@@H](CC(C)C)NC(=O)[C@H](C)NC(=O)[C@@H](NC(=O)[C@H](CO)NC(=O)[C@@H](CCCCN)NC(=O)[C@@H](CC(C)C)NC(=O)[C@@H](N)Cc2ccccc2)[C@@H](C)OC1=O [analogue 1]
- MIC against MRSA ATCC 33591 (MRSA ATCC 33591; [3]): 8 µg/mL (≈ 9.15 µM)
